In ChEMBL document CHEMBL1128623, “Influence of the absolute configuration at C-4 in the binding of d-myoinositol 1,4,5 trisphosphate analogues to IP3 receptor” (Bioorg Med Chem Lett, 1995):

What was measured:
Conditions in all cases: Membrane
[1] = molecular target: Inositol 1,4,5-trisphosphate-gated calcium channel ITPR3 (Rattus norvegicus) (UniProt Q63269); assay: Inositol 1,4,5-trisphosphate receptor activity by residual [3H]- IP3 binding to rat cerebellar membranes by the compound at logC = -6M
[2] = molecular target: Inositol 1,4,5-trisphosphate-gated calcium channel ITPR3 (Rattus norvegicus) (UniProt Q63269); assay: Inositol 1,4,5-trisphosphate receptor activity by residual [3H]- IP3 binding to rat cerebellar membranes by the compound at logC = -7M
[3] = molecular target: Inositol 1,4,5-trisphosphate-gated calcium channel ITPR3 (Rattus norvegicus) (UniProt Q63269); assay: Inositol 1,4,5-trisphosphate receptor activity by residual [3H]- IP3 binding to rat cerebellar membranes by the compound at logC = -9M
[4] = molecular target: Inositol 1,4,5-trisphosphate-gated calcium channel ITPR3 (Rattus norvegicus) (UniProt Q63269); assay: Inositol 1,4,5-trisphosphate receptor activity by residual [3H]- IP3 binding to rat cerebellar membranes by the compound at logC = -5M
[5] = molecular target: Inositol 1,4,5-trisphosphate-gated calcium channel ITPR3 (Rattus norvegicus) (UniProt Q63269); assay: Inositol 1,4,5-trisphosphate receptor activity by residual [3H]- IP3 binding to rat cerebellar membranes by the compound at logC = -8M

Inositol 1,4,5-trisphosphate-gated calcium channel ITPR3 (Rattus norvegicus), sequence (Q63269 whole entry): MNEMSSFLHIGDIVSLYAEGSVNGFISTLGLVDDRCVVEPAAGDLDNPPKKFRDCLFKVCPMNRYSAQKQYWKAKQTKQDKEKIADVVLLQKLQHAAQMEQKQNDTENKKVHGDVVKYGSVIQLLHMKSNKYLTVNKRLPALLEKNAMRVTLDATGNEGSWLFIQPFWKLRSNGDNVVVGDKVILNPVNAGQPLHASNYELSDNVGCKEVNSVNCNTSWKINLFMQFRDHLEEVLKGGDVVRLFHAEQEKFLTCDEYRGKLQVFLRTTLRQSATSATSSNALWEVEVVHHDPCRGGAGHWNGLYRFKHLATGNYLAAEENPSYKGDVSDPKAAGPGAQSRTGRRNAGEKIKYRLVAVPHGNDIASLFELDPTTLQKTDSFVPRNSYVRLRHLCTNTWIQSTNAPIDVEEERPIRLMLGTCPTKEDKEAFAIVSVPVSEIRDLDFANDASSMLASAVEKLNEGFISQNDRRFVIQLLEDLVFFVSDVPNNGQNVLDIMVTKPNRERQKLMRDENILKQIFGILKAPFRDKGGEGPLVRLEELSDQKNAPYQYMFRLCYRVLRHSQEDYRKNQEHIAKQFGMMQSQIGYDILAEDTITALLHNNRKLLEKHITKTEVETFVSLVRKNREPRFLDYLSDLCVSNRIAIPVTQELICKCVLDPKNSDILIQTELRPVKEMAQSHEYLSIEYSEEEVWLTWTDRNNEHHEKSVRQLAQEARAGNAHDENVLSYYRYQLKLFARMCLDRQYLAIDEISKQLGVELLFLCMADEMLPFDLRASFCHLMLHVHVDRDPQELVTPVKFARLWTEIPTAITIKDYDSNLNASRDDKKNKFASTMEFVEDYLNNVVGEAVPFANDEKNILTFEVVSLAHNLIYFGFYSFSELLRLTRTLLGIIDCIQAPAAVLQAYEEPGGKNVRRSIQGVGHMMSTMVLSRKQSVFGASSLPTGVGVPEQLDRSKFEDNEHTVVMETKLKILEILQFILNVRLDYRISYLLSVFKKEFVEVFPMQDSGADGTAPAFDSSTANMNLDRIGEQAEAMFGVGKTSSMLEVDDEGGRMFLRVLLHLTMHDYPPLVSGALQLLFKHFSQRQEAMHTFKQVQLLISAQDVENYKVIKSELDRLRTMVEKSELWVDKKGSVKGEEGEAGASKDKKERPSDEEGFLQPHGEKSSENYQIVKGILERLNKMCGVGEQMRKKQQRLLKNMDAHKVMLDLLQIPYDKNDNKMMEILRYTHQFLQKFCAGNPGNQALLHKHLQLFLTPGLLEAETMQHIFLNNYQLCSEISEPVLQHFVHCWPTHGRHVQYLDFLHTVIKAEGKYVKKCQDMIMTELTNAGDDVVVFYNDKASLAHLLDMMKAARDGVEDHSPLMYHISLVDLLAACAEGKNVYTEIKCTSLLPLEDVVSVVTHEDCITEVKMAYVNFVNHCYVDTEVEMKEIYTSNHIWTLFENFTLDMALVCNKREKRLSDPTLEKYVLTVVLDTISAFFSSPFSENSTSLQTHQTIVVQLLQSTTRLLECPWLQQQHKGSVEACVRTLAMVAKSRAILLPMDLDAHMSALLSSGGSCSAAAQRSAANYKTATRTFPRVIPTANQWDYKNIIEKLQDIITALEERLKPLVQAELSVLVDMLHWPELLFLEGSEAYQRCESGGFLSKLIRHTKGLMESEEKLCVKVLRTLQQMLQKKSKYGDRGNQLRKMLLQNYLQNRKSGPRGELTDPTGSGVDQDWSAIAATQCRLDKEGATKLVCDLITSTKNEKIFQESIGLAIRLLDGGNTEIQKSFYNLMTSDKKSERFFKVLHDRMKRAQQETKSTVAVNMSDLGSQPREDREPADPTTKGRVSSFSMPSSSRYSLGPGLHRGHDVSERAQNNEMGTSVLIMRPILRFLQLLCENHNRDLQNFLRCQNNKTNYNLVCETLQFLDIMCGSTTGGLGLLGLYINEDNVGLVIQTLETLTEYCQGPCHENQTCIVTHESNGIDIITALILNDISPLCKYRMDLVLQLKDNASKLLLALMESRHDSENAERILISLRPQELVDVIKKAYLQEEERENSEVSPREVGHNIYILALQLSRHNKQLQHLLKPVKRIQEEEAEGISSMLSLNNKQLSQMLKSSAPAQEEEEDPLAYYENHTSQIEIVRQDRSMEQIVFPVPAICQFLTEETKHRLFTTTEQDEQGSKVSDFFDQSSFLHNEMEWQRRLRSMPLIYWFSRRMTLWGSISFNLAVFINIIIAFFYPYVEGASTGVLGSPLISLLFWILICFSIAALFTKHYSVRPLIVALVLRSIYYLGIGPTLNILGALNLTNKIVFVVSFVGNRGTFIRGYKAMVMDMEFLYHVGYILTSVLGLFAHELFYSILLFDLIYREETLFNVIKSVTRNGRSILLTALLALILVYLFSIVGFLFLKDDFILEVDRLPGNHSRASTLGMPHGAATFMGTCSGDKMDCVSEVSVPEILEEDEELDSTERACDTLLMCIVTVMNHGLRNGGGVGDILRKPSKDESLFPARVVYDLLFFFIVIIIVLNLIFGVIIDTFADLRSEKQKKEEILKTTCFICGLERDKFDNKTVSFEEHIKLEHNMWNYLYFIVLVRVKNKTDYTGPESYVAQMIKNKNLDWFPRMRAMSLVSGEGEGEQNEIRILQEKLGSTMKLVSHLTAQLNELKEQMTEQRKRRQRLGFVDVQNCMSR

residual activity [1] [%] | residual activity [2] [%] | residual activity [3] [%] | residual activity [4] [%] | residual activity [5] [%] | SMILES
80 | 100 | 100 | 40 | 110 | O=P(O)(O)O[C@@H]1[C@@H](O)[C@H](OP(=O)(O)O)[C@H](O)C[C@@H]1OP(=O)(O)O
5 | 20 | 95 | 5 | 70 | O=P(O)(O)O[C@@H]1[C@H](O)[C@@H](O)[C@@H](OP(=O)(O)O)[C@H](OP(=O)(O)O)[C@H]1O
20 | 50 |  |  | 100 | O=P(O)(O)O[C@@H]1[C@@H](O)[C@H](OP(=O)(O)O)[C@H](O)C[C@H]1OP(=O)(O)O
